Reference: the supplement of paper PMC12406974

Columns and labels:
Experiment in all cases: maximum observed lethal fraction; higher = more cell death
[1] = tested on: U2OS PTBP1-KO
[2] = tested on: U2OS
[3] = tested on: U2OS BAX/BAK1 DKO
[4] = tested on: U2OS BCL2L12-KO
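Further: FLICK assay: SYTOX Green fluorescence of dead cells tracked over time after drugging in 96-well plates, with total cell counts taken from Triton X-100 lysed wells.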

O=C(CCCCCCC(=O)Nc1ccccc1)NO [Vorinostat]
maximum observed lethal fraction
Settings | 0.1 µM | 0.316 µM | 1 µM | 3.16 µM | 10 µM | 31.6 µM | 100 µM
[1] | 0.0673 | 0.0682 | 0.0906 | 0.316 | 0.481 | 0.558 | 0.513
[2] | 0.0571 | 0.0602 | 0.0901 | 0.458 | 0.659 | 0.778 | 0.811
[3] | 0.0548 | 0.0545 | 0.0635 | 0.0731 | 0.0736 | 0.081 | 0.084
[4] | 0.0673 | 0.0704 | 0.185 | 0.586 | 0.804 | 0.824 | 0.899

CC(=O)c1c(C)c2cnc(Nc3ccc(N4CCNCC4)cn3)nc2n(C2CCCC2)c1=O [Palbociclib]
maximum observed lethal fraction
Settings | 0.01 µM | 0.0316 µM | 0.1 µM | 0.316 µM | 1 µM | 3.16 µM | 10 µM
[1] | 0.0641 | 0.0713 | 0.0739 | 0.0802 | 0.0817 | 0.0847 | 0.109
[2] | 0.0597 | 0.068 | 0.0645 | 0.0683 | 0.0747 | 0.09 | 0.173
[3] | 0.0642 | 0.0646 | 0.0686 | 0.0764 | 0.0783 | 0.0842 | 0.0911
[4] | 0.0599 | 0.0645 | 0.0667 | 0.0699 | 0.0732 | 0.0829 | 0.221

Cc1[nH]c2ccccc2c1CCNCc1ccc(/C=C/C(=O)NO)cc1 [Panobinostat]
maximum observed lethal fraction
Settings | 0.001 µM | 0.00316 µM | 0.01 µM | 0.0316 µM | 0.1 µM | 0.316 µM | 1 µM
[1] | 0.0914 | 0.11 | 0.349 | 0.527 | 0.601 | 0.603 | 0.65
[2] | 0.0735 | 0.0836 | 0.265 | 0.655 | 0.761 | 0.802 | 0.851
[3] | 0.0715 | 0.0768 | 0.0894 | 0.102 | 0.108 | 0.0953 | 0.0939
[4] | 0.0774 | 0.0897 | 0.352 | 0.775 | 0.856 | 0.838 | 0.895

CC1(C)CCC(CN2CCN(c3ccc(C(=O)NS(=O)(=O)c4ccc(NCC5CCOCC5)c([N+](=O)[O-])c4)c(Oc4cnc5[nH]ccc5c4)c3)CC2)=C(c2ccc(Cl)cc2)C1 [ABT-199]
maximum observed lethal fraction
Settings | 0.1 µM | 0.316 µM | 1 µM | 3.16 µM | 10 µM | 31.6 µM | 100 µM
[1] | 0.0644 | 0.0635 | 0.0617 | 0.0671 | 0.0741 | 0.211 | 0.517
[2] | 0.0502 | 0.0518 | 0.0546 | 0.0609 | 0.0939 | 0.239 | 0.52
[3] | 0.0501 | 0.0536 | 0.0531 | 0.0558 | 0.0561 | 0.0846 | 0.0728
[4] | 0.0643 | 0.0609 | 0.063 | 0.0712 | 0.114 | 0.39 | 0.692

Cc1cc(Nc2ccc(NC(=O)c3ccc(Nc4ccnc5ccccc45)cc3)cc2)nc(N)n1 [SGI-1027]
maximum observed lethal fraction
Settings | 0.0316 µM | 0.1 µM | 0.316 µM | 1 µM | 3.16 µM | 10 µM | 31.6 µM
[1] | 0.0577 | 0.0687 | 0.0612 | 0.208 | 0.977 | 1 | 0.886
[2] | 0.0565 | 0.0566 | 0.0644 | 0.414 | 0.997 | 1 | 0.875
[3] | 0.0581 | 0.0592 | 0.0626 | 0.104 | 0.964 | 1 | 0.883
[4] | 0.0572 | 0.0566 | 0.0604 | 0.902 | 1 | 0.984 | 0.888

Cc1c2oc3c(C)ccc(C(=O)N[C@@H]4C(=O)N[C@H](C(C)C)C(=O)N5CCC[C@H]5C(=O)N(C)CC(=O)N(C)[C@@H](C(C)C)C(=O)O[C@@H]4C)c3nc-2c(C(=O)N[C@@H]2C(=O)N[C@H](C(C)C)C(=O)N3CCC[C@H]3C(=O)N(C)CC(=O)N(C)[C@@H](C(C)C)C(=O)O[C@@H]2C)c(N)c1=O [Actinomycin-D]
maximum observed lethal fraction
Settings | 0.001 µM | 0.00316 µM | 0.01 µM | 0.0316 µM | 0.1 µM | 0.316 µM | 1 µM
[1] | 0.0967 | 0.164 | 0.311 | 0.206 | 0.243 | 0.368 | 0.328
[2] | 0.0789 | 0.0968 | 0.505 | 0.545 | 0.4 | 0.637 | 0.578
[3] | 0.0757 | 0.0754 | 0.0792 | 0.088 | 0.0799 | 0.0933 | 0.0822
[4] | 0.101 | 0.199 | 0.648 | 0.35 | 0.254 | 0.406 | 0.377

COc1cc([C@@H]2c3cc4c(cc3[C@@H](O[C@@H]3O[C@@H]5CO[C@@H](C)O[C@H]5[C@H](O)[C@H]3O)[C@H]3COC(=O)[C@H]23)OCO4)cc(OC)c1O [Etoposide]
maximum observed lethal fraction
Settings | 0.0316 µM | 0.1 µM | 0.316 µM | 1 µM | 3.16 µM | 10 µM | 31.6 µM
[1] | 0.0736 | 0.0782 | 0.0848 | 0.0897 | 0.0981 | 0.384 | 0.649
[2] | 0.0568 | 0.0636 | 0.0687 | 0.0712 | 0.0784 | 0.31 | 0.601
[3] | 0.055 | 0.0596 | 0.0706 | 0.0746 | 0.0695 | 0.0871 | 0.0793
[4] | 0.0627 | 0.0728 | 0.083 | 0.0936 | 0.0967 | 0.341 | 0.629

CN1CC[C@H](c2c(O)cc(O)c3c(=O)cc(-c4ccccc4Cl)oc23)[C@H](O)C1 [Flavopiridol]
maximum observed lethal fraction
Settings | 0.01 µM | 0.0316 µM | 0.1 µM | 0.316 µM | 1 µM | 3.16 µM | 10 µM
[1] | 0.0606 | 0.067 | 0.099 | 0.198 | 0.282 | 0.247 | 0.198
[2] | 0.0575 | 0.0639 | 0.486 | 0.528 | 0.552 | 0.501 | 0.356
[3] | 0.0607 | 0.0712 | 0.208 | 0.0919 | 0.093 | 0.092 | 0.0925
[4] | 0.0552 | 0.0619 | 0.1 | 0.279 | 0.298 | 0.295 | 0.249

C#C[C@@]1(O)[C@@H](CO)O[C@@H](n2ccc(N)nc2=O)[C@@H]1O [Ethynylcytidine]
maximum observed lethal fraction
Settings | 0.01 µM | 0.0316 µM | 0.1 µM | 0.316 µM | 1 µM | 3.16 µM | 10 µM
[1] | 0.0691 | 0.0709 | 0.0864 | 0.0904 | 0.101 | 0.329 | 0.244
[2] | 0.0536 | 0.0612 | 0.071 | 0.0947 | 0.523 | 0.868 | 0.787
[3] | 0.0536 | 0.059 | 0.0745 | 0.0801 | 0.0819 | 0.0878 | 0.0906
[4] | 0.068 | 0.0771 | 0.0843 | 0.0999 | 0.323 | 0.706 | 0.715

Nc1ncnc2c1ncn2[C@@H]1O[C@H](CO)C[C@H]1O [Cordycepin]
maximum observed lethal fraction
Settings | 0.1 µM | 0.316 µM | 1 µM | 3.16 µM | 10 µM | 31.6 µM | 100 µM
[1] | 0.068 | 0.0684 | 0.0659 | 0.0646 | 0.0665 | 0.0847 | 0.517
[2] | 0.0524 | 0.0543 | 0.0522 | 0.0545 | 0.054 | 0.0774 | 0.451
[3] | 0.0507 | 0.0537 | 0.0531 | 0.0551 | 0.0542 | 0.0698 | 0.072
[4] | 0.0657 | 0.0642 | 0.064 | 0.068 | 0.0693 | 0.0825 | 0.616

C=CC(=O)Nc1ccc(C(=O)Nc2[nH]nc3c2CN(C(=O)N[C@H](CN(C)C)c2ccccc2)C3(C)C)cc1 [YKL-5-124]
maximum observed lethal fraction
Settings | 0.0316 µM | 0.1 µM | 0.316 µM | 1 µM | 3.16 µM | 10 µM | 31.6 µM
[1] | 0.0724 | 0.0809 | 0.0854 | 0.0868 | 0.0884 | 0.1 | 0.252
[2] | 0.0634 | 0.0827 | 0.0923 | 0.161 | 0.221 | 0.274 | 0.461
[3] | 0.0674 | 0.0739 | 0.0839 | 0.0802 | 0.0829 | 0.0948 | 0.1
[4] | 0.0697 | 0.0761 | 0.0812 | 0.0841 | 0.0923 | 0.115 | 0.49

CN(C)C(=O)c1cc2cnc(Nc3ccc(N4CCNCC4)cn3)nc2n1C1CCCC1 [Ribociclib]
maximum observed lethal fraction
Settings | 0.01 µM | 0.0316 µM | 0.1 µM | 0.316 µM | 1 µM | 3.16 µM | 10 µM
[1] | 0.0584 | 0.0595 | 0.064 | 0.0704 | 0.0696 | 0.0751 | 0.0787
[2] | 0.0675 | 0.0565 | 0.0602 | 0.0591 | 0.0629 | 0.0661 | 0.077
[3] | 0.0572 | 0.057 | 0.0609 | 0.0673 | 0.0658 | 0.0721 | 0.082
[4] | 0.0551 | 0.0572 | 0.0587 | 0.0607 | 0.0645 | 0.07 | 0.0804

COc1ccc(C[C@H]2NC[C@H](O)[C@H]2OC(C)=O)cc1 [Anisomycin]
maximum observed lethal fraction
Settings | 0.316 µM | 1 µM | 3.16 µM | 10 µM | 31.6 µM | 100 µM | 316 µM
[1] | 0.174 | 0.177 | 0.239 | 0.337 | 0.426 | 0.403 | 0.408
[2] | 0.277 | 0.456 | 0.711 | 0.845 | 0.888 | 0.879 | 0.903
[3] | 0.114 | 0.119 | 0.103 | 0.111 | 0.121 | 0.109 | 0.107
[4] | 0.218 | 0.159 | 0.181 | 0.32 | 0.353 | 0.387 | 0.444
